Experimental data from US8575153B2 (Kowa Company, Ltd., priority 2008, dated 2013).

Experiments:
[1] = target: Recombinant human JAK3 enzyme (JAK3 kinase region; Ala795-Ser1124) (Homo sapiens, UniProt P52333); experiment: JAK3 Kinase Assay (Kinase-Glo luminescent, ATP consumption); settings: read-out: Inhibition rate (%) of JAK3 kinase activity
Chain of Recombinant human JAK3 enzyme (JAK3 kinase region; Ala795-Ser1124) (P52333 795-1124): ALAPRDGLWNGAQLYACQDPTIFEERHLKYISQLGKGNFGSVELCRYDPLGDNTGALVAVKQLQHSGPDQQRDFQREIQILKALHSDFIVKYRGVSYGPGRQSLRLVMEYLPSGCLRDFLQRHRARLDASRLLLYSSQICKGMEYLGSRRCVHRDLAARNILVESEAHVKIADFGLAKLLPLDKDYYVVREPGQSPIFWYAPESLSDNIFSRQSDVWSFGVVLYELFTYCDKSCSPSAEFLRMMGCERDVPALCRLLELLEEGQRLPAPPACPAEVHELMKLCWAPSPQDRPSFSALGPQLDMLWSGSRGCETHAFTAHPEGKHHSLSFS
Method: Recombinant human JAK3 enzyme (JAK3 kinase region; Ala795-Ser1124) was purchased from Carna Biosciences, Inc.
The reaction was conducted in a kinase buffer (reaction volume: a total of 50 μl) containing 8 mM MOPS (pH 7.0), 0.2 mM EDTA, a test compound solution prepared to each concentration and 0.5 μg/ml JAK3 enzyme using a 96-well polystyrene plate (clear-bottom white-wall). […] After incubating them at room temperature for 2 hours, 50 μl of Kinase-Glo Luminescent Kinase Assay reagent (Promega) was added to each well, and further incubated at room temperature for 10 minutes. Using a chemiluminescence microplate reader MicroLumat LB96P (Berthold), chemiluminescence intensity was measured to quantitate the amount of ATP remaining after reaction. From the amount of ATP consumed in the phosphorylation reaction, the inhibition rate (%) of JAK3 kinase activity was determined.

Row | inhibition at 0.1 µM [1] [%] | melting point | SMILES
1 | 60 | 180 to 181 °C | NCCCc1ccc(Nc2cc(NCc3cc(F)cc(F)c3)c(C(N)=O)cn2)cc1 [Example 201, 6-{[4-(3-aminopropyl)phenyl]amino}-4-[(3,5-difluorobenzyl)amino]pyridine-3-carboxyamide]
2 | 77 | 224 to 227 °C | CC(=O)N1CCCN(c2ccc(Nc3cc(NCc4ccccc4)c(C(N)=O)cn3)cc2)CC1 [Example 256, 6-{[4-(4-acetyl-1,4-diazepan-1-yl)phenyl]amino}-4-(benzylamino)pyridine-3-carboxyamide]
3 | 88 | 113 to 120 °C (dec.) | CNCCN1CCN(c2ccc(Nc3cc(NCc4cc(F)cc(F)c4)c(C(N)=O)cn3)cc2)CC1 [Example 251, 4-[(3,5-difluorobenzyl)amino]-6-[(4-{4-[2-(methylamino)ethyl]piperazin-1-yl}phenyl)amino]pyridine-3-carboxyamide]

The next lines start with the compound.

Row | SMILES | inhibition at 0.1 µM [1] [%] | melting point
4 | Cc1cc(Nc2cc(NCc3cc(F)cc(F)c3)c(C(N)=O)cn2)ccc1N1CCOCC1 [Example 126, 4-[(3,5-difluorobenzyl)amino]-6-[(3-methyl-4-morpholinophenyl)amino]-pyridine-3-carboxyamide] | 60 | 223 to 224 °C (dec.)
5 | NC(=O)c1cnc(Nc2cccc(N3CCOCC3)c2)cc1NCc1cc(F)cc(F)c1 [Example 131, 4-[(3,5-difluorobenzyl)amino]-6-[(3-morpholinophenyl)amino]pyridine-3-carboxyamide] | 91 | 197 to 198 °C (dec.)
6 | C[C@@H]1CN(c2ccc(Nc3cc(NCc4c(F)cccc4F)c(C(N)=O)cn3)cc2)C[C@H](C)N1 [Example 143, 4-[(2,6-difluorobenzyl)amino]-6-({4-[(3R,5S)-3,5-dimethylpiperazin-1-yl]phenyl}amino) pyridine-3-carboxyamide] | 88 | 218 to 219 °C
7 | COc1cc(Nc2cc(NCc3cc(F)cc(F)c3)c(C(N)=O)cn2)ccc1N1CCOCC1 [Example 128, 4-[(3,5-difluorobenzyl)amino]-6-[(3-methoxy-4-morpholinophenyl)amino]pyridine-3-carboxyamide] | 92 | 229.6 to 230 °C (dec.)
